Test results reported in US20150368248A1, “2-SUBSTITUTED-6-BIARYLMETHYLAMINO-9-CYCLOPENTYL-9H-PURINE DERIVATIVES, USE THEREOF AS MEDICAMENTS, AND PHARMACEUTICAL COMPOSITIONS” (UNIVERZITA PALACKEHO V OLOMOUCI, priority 2013, published 2015).
Where two headings read alike, the source gives them in different places.

Legend:
HUH-7 = experiment: MTT cytotoxicity assay (Example 30); type: cell-based; conditions: Homo sapiens, Huh-7, 72 h; MTT, three days after drug addition; read-out: Inhibitory concentration IC50, HUH-7
Procedure: (§1) Cytotoxicity of the compounds is the major property determining their anticancer effect in vivo. One of the parameters used, as the basis for cytotoxicity assays, is the metabolic activity of viable cells.
(§2) We have been using the following cell lines: HUH-7 and PLC/PRF/5 cell lines were maintained in DMEM supplemented with 10% fetal bovine serum, penicillin (100 U/ml) and streptomycin (100 μg/ml). […] HepG2 cell line was maintained in EMEM supplemented with 10% fetal bovine serum, sodium pyruvate (0.11 g/1), penicillin (100 U/ml) and streptomycin (100 μg/ml). All cell lines were cultivated at 37° C. in 5% CO2. For cytotoxicity assays, 3000 cells (10000 cells in case of HepG2 cell line) were seeded into each well of 96 well plate and the next day tested compounds were added at various concentrations in triplicates. Three days after drug addition MTT stock solution (5 mg/ml) was added into each well and incubated for 4 h. After this incubation period, produced formazan was dissolved by DMSO and final absorbance was measured at 570 nm with Synergy H4 Hybrid Multi-Mode Microplate Reader.

HCC-1.2 (3p) = experiment: MTT cytotoxicity assay (Example 30); type: cell-based; conditions: Homo sapiens, HCC-1.2, 72 h; MTT, three days after drug addition; read-out: Inhibitory concentration IC50, 3p
Procedure: as §1, §2

PLC/PRF/5 = experiment: MTT cytotoxicity assay (Example 30); type: cell-based; conditions: Homo sapiens, PLC-PRF-5, 72 h; MTT, three days after drug addition; read-out: Inhibitory concentration IC50, PLC/PRF/5
Procedure: as §1, §2

HCC-1.1 (3sp) = experiment: MTT cytotoxicity assay (Example 30); type: cell-based; conditions: Homo sapiens, 72 h; MTT, three days after drug addition; read-out: Inhibitory concentration IC50, 3sp
Procedure: as §1, §2

Hep3B = experiment: MTT cytotoxicity assay (Example 30); type: cell-based, human; conditions: Homo sapiens, Hep3B, 72 h; MTT, three days after drug addition; read-out: Inhibitory concentration IC50, Hep3B
Procedure: as §1, §2

[1] = system: human umbilical vein endothelial cells (HUVECs); experiment: Migration scratch assay; type: cell-based; design: key to Wound area: ++: open; +: partly open; 0: closed; conditions: 24 h
Procedure: Migration assay was performed as described previously (Krystof et al., 2011, Eur J Med Chem.; 46(9):4289-94). Briefly, confluent HUVECs were scratched and immediately treated for 24 h with various doses of compounds. After incubation each well was photographed using a DP Controller system (Olympus) connected to a Olympus BX50 microscope. Migration was expressed as the proportion of pixels of the wound area in the image that were not covered by cells using “in house” software.

[2] = system: human umbilical vein endothelial cells (HUVEC); experiment: HUVEC proliferation, Calcein AM; type: cell-based; conditions: Homo sapiens, HUVEC, read-out: Inhibitory concentration for HUVEC cells - IC50
Procedure: Novel 2-substituted-6-biarylmethylamino-9-cyclopentyl-9H-purine derivatives were tested for their potential anti-angiogenic properties; we analyzed its influence on the proliferation (Tab. 9), migration and tube formation of human umbilical vein endothelial cells (HUVEC). Confluent HUVECs were seeded in 96-well microtiter plates to detect their proliferation for 24 or 72 h using Calcein AM solution (Invitrogen) and a Fluoroskan Ascent microplate reader (Labsystems) as described previously (Krystof et al., 2011, Eur J Med Chem. 2011 September; 46(9):4289-94).

CDK7/cyclin H/MAT1 = molecular target: T1, CDK7/cyclin H/MAT1 (Homo sapiens, UniProt P50613); experiment: Kinase inhibition assay, recombinant kinase, [γ-33P]ATP; type: biochemical; conditions: read-out: Residual kinase activity, CDK7; for remaining activity at 0.1 µM: 100 nM; for remaining activity at 1 µM: 1000 nM
T1 construct: purchased ProQinase GmbH (Freiburg, Germany)
T1 sequence (P50613 whole entry): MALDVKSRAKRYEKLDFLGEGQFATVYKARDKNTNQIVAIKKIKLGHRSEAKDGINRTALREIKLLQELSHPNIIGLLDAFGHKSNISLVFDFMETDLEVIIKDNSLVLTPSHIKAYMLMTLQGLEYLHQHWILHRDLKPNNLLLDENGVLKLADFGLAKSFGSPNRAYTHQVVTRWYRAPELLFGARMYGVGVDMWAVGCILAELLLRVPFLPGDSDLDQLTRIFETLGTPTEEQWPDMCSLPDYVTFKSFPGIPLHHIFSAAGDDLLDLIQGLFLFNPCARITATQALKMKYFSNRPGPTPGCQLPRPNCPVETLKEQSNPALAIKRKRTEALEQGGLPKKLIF
T1 sequence (P51946 whole entry partner): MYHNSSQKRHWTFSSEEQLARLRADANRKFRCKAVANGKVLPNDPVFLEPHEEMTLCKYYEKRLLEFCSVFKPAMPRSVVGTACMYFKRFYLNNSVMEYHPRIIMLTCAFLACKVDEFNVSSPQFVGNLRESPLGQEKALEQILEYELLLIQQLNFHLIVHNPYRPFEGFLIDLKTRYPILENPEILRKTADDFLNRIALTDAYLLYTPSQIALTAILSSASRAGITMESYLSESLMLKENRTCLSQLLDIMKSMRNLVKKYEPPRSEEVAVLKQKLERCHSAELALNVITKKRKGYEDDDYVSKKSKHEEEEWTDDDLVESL
T1 sequence (P51948 whole entry partner): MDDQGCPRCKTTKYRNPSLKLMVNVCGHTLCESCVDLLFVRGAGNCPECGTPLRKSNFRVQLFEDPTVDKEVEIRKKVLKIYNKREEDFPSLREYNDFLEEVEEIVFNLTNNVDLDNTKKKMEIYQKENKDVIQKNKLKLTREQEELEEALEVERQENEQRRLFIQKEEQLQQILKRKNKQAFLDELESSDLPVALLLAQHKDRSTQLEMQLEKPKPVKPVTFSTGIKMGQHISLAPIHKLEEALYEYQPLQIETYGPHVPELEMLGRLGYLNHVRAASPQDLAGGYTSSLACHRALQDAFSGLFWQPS
Procedure: (§3) CDK2/Cyclin E kinase was produced in Sf9 insect cells via baculoviral infection and purified on a NiNTA column (Qiagen). CDK5/p35, CDK7Cyclin H/MAT1 and CDK9/Cyclin T1 was purchased from ProQinase GmbH. The kinase reactions were assayed with 1 mg/mL histone H1 (for CDK2 and CDK5) or (YSPTSPS)2KK peptide (for CDK7 and CDK9) in the presence of 15/0.15/1.5/1.5 μM ATP (for CDK2/CDK5/CDK7CDK9), 0.05 μCi [γ-^33P]ATP and of the test compound in a final volume of 10 μL, all in a reaction buffer (60 mM HEPES-NaOH, pH 7.5, 3 mM MgCl2, 3 mM MnCl2, 3 μM Na-orthovanadate, 1.2 mM DTT, 2.5 μg/50 μl PEG20,000). The reactions were stopped by adding 5 μL of 3% aq H3PO4. Aliquots were spotted onto P-81 phosphocellulose (Whatman), washed 3× with 0.5% aq H3PO4 and finally air-dried.
(§4) CDK1/cyclin B and CDK2/cyclin E kinases were produced in Sf9 insect cells via baculoviral infection, while CDK5/p35, CDK7/cyclin H/MAT1, and CDK9/cyclin T1 were purchased from ProQinase (Freiburg, Germany) and assayed as described previously (35). The kinase reactions were assayed with 1 mg/ml histone H1 (for CDK2 and CDK5) or (YSPTSPS)2KK peptide (for CDK7 and CDK9) in the presence of 15/0.15/1.5/1.5 […] ATP (for CDK2/CDK5/CDK7CDK9), […] [γ-^33P]ATP and of the test compound in a final volume of […]. The reaction buffer contained 60 mM HEPES-NaOH, pH 7.5, 3 mM MgCl2, 3 mM MnCl2, 3 mM Na-orthovanadate, 1.2 mM DTT, 2.5 mg/50 ml PEG20.000. The reactions were stopped by adding […] of 3% H3PO4. Aliquots were spotted onto P-81 phosphocellulose (Whatman, GE Healthcare Biosciences, Pittsburgh, USA), washed 3 times with 0.5% H3PO4 and finally air-dried. Kinase inhibition was quantified using a FLA-7000 digital image analyzer (Fujifilm, Tokyo, Japan).

CDK5/p35 = molecular target: T2, CDK5/p35 (Homo sapiens, UniProt Q00535); experiment: as above; type: biochemical; conditions: read-out: Residual kinase activity, CDK5; for remaining activity at 0.1 µM: 100 nM; for remaining activity at 1 µM: 1000 nM
T2 construct: purchased ProQinase GmbH (Freiburg, Germany)
T2 sequence (Q00535 whole entry): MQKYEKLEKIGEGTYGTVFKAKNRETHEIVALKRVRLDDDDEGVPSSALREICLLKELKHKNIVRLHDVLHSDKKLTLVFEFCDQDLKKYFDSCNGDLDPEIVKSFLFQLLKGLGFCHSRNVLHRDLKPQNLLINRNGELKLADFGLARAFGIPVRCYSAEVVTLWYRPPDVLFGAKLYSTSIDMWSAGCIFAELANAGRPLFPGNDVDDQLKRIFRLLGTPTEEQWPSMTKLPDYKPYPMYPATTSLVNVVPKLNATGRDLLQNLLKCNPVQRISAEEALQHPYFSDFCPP
T2 sequence (Q15078 whole entry partner): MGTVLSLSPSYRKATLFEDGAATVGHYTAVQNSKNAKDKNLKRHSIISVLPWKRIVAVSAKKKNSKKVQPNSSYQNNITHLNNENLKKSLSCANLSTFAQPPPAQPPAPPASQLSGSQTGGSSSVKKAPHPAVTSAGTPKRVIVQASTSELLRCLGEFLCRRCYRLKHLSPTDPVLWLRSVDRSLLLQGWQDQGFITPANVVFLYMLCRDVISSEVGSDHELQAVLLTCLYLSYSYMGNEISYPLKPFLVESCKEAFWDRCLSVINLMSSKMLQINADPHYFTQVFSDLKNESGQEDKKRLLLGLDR
Procedure: as §3, §4

CDK9/Cyclin T1 = molecular target: T3, CDK9/Cyclin T1 (Homo sapiens, UniProt P50750); experiment: as above; type: biochemical; conditions: for remaining activity at 0.1 µM: 100 nM; for remaining activity at 0.1 µM / remaining activity at 1 µM: read-out: Residual kinase activity, CDK9; for remaining activity at 1 µM: 1000 nM
T3 construct: purchased ProQinase GmbH (Freiburg, Germany)
T3 sequence (P50750 whole entry): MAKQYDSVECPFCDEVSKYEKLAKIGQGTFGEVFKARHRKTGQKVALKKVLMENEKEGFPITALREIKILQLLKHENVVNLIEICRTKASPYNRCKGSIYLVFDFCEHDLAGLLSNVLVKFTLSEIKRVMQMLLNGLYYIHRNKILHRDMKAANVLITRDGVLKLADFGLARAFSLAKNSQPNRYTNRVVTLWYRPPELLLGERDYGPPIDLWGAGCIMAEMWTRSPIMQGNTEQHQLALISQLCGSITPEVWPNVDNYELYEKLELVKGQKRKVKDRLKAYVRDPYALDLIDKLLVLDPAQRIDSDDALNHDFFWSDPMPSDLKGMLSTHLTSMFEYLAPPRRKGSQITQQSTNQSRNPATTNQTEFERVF
T3 sequence (O60563 whole entry partner): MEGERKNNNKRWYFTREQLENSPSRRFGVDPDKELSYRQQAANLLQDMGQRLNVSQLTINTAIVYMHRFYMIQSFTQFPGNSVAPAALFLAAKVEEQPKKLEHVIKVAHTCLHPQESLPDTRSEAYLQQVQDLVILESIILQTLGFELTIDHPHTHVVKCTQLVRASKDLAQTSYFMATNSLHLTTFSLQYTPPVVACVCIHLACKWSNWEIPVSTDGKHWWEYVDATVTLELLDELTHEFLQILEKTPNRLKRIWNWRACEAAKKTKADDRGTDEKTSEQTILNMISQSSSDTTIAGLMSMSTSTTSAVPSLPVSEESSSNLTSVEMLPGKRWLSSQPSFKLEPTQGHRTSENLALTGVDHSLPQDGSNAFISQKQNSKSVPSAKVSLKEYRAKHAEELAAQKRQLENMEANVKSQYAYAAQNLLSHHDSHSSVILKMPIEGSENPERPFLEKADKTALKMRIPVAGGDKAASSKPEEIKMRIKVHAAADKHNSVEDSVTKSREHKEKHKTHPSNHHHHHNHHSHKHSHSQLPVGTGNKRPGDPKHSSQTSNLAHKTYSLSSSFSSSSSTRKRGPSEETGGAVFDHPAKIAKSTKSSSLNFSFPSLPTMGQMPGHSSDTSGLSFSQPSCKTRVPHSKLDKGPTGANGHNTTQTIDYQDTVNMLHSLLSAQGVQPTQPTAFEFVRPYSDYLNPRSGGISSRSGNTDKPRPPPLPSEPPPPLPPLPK
Procedure: as §3, §4

remaining activity at 0.1 µM (CDK7/cyclin H/MAT1) [%] | remaining activity at 1 µM (CDK7/cyclin H/MAT1) [%] | remaining activity at 0.1 µM (CDK5/p35) [%] | remaining activity at 1 µM (CDK5/p35) [%] | remaining activity at 0.1 µM (CDK9/Cyclin T1) [%] | remaining activity at 1 µM (CDK9/Cyclin T1) [%] | Structure (SMILES) | IC50 (HUH-7) [nM] | IC50 (HCC-1.2 (3p)) [nM] | IC50 (PLC/PRF/5) [nM] | IC50 (HCC-1.1 (3sp)) [nM] | IC50 (Hep3B) [nM] | Wound area ([1]; 100 nM) | Wound area ([1]; 1000 nM) | IC50 ([2]; 24 h) [nM] | IC50 ([2]; 72 h) [nM] | IC50 (CDK9/Cyclin T1; Table 12, read-out: IC50, CDK9/cyklin T) [nM]
– | – | – | – | – | – | NC1CCC(Nc2nc(NCc3ccc(-c4cccs4)cc3)c3ncn(C4CCCC4)c3n2)CC1 (centres unmarked) [BP2, N^2-(4-amino-cyclohexyl)-9-cyclopentyl-N^6-(4-thiophen-2-yl-benzyl)-9H-purine-2,6-diamine] | 319 | 317 | 105 | 466 | 460 | – | – | – | – | –
– | – | – | – | – | – | NC1CCC(Nc2nc(NCc3ccc(-c4ccco4)cc3)c3ncn(C4CCCC4)c3n2)CC1 (centres unmarked) [BP4, N^2-(4-amino-cyclohexyl)-9-cyclopentyl-N^6-(4-furan-2-yl-benzyl)-9H-purine-2,6-diamine] | 355 | 802 | 106 | 813 | 708 | 0 | ++ | 15700 | 450 | –
– | – | – | – | – | – | NC1CCC(Nc2nc(NCc3ccc(-c4ccsc4)cc3)c3ncn(C4CCCC4)c3n2)CC1 (centres unmarked) [BP5, N^2-(4-amino-cyclohexyl)-9-cyclopentyl-N^6-(4-thiophen-3-yl-benzyl)-9H-purine-2,6-diamine] | 231 | 420 | 60 | 454 | 405 | – | – | – | – | –
– | – | – | – | – | – | NC1CCC(Nc2nc(NCc3ccc(-c4cccc(F)c4)cc3)c3ncn(C4CCCC4)c3n2)CC1 (centres unmarked) [BP12, N^2-(4-amino-cyclohexyl)-9-cyclopentyl-N^6-(3′-fluoro-biphenyl-4-ylmethyl)-9H-purine-2,6-diamine] | 199 | 288 | 77 | 492 | 418 | – | – | – | – | –
– | – | – | – | – | – | NC1CCC(Nc2nc(NCc3ccc(-c4ccoc4)cc3)c3ncn(C4CCCC4)c3n2)CC1 (centres unmarked) [BP13, N^2-(4-amino-cyclohexyl)-9-cyclopentyl-N^6-(4-furan-3-yl-benzyl)-9H-purine-2,6-diamine] | 339 | 602 | 76 | 613 | 518 | – | – | – | – | –
– | – | – | – | – | – | COc1ccccc1-c1ccc(CNc2nc(NC3CCC(N)CC3)nc3c2ncn3C2CCCC2)cc1 (centres unmarked) [BP16, N^2-(4-amino-cyclohexyl)-9-cyclopentyl-N^6-(2′-methoxy-biphenyl-4-ylmethyl)-9H-purine-2,6-diamine] | 363 | 580 | 129 | 767 | 532 | – | – | – | – | –
54.1 | 24.1 | 49.2 | 23.6 | 32.6 | 1.03 | COc1ccccc1-c1ccc(CNc2nc(NC3CCC(N)CC3)nc3c2ncn3C2CCCC2)cn1 (centres unmarked) [BP18, N^2-(4-amino-cyclohexyl)-9-cyclopentyl-N^6-[6-(2-methoxy-phenyl)-pyridin-3-ylmethyl]-9H-purine-2,6-diamine] | 618 | 791 | 22 | 791 | 233 | + | ++ | > 50000 | 520 | –
72 | 48.5 | 88.2 | 23.4 | 49 | 7.74 | OC1CCC(Nc2nc(NCc3ccc(-c4ccco4)nc3)c3ncn(C4CCCC4)c3n2)CC1 (centres unmarked) [BP21, 4-{9-cyclopentyl-6-[(6-furan-2-yl-pyridin-3-ylmethyl)-amino]-9H-purine-2-ylamino}-cyklohexanol] | 155 | 167 | 46 | 408 | 487 | – | – | – | – | –
70 | 93.9 | 87.8 | 89 | 93.4 | 82.8 | Nc1ccccc1-c1ccc(CNc2nc(NC3CCC(N)CC3)nc3c2ncn3C2CCCC2)cn1 (centres unmarked) [BP22, N^2-(4-amino-cyclohexyl)-9-cyclopentyl-N^6-[6-(2-amino-phenyl)-pyridin-3-ylmethyl]-9H-purine-2,6-diamine] | 642 | 436 | 280 | 516 | 487 | – | – | – | – | –
– | – | – | – | – | – | NC1CCC(Nc2nc(NCc3ccc(-n4cccn4)cc3)c3ncn(C4CCCC4)c3n2)CC1 (centres unmarked) [BP24, N^2-(4-amino-cyclohexyl)-9-cyclopentyl-N^6-(4-pyrazol-1-yl-benzyl)-9H-purine-2,6-diamine] | 177 | 169 | 12 | 339 | 115 | + | ++ | > 50000 | 170 | –
– | – | – | – | – | – | Nc1ccccc1-c1ccc(CNc2nc(NC3CCC(N)CC3)nc3c2ncn3C2CCCC2)cc1 (centres unmarked) [BP32, N^2-(4-amino-cyclohexyl)-9-cyclopentyl-N^6-(2′-amino-biphenyl-4-ylmethyl)-9H-purine-2,6-diamine] | 647 | 543 | 122 | 687 | 400 | – | – | – | – | –

Structure (SMILES) | remaining activity at 0.1 µM (CDK7/cyclin H/MAT1) [%] | remaining activity at 1 µM (CDK7/cyclin H/MAT1) [%] | remaining activity at 0.1 µM (CDK5/p35) [%] | remaining activity at 1 µM (CDK5/p35) [%] | remaining activity at 0.1 µM (CDK9/Cyclin T1) [%] | remaining activity at 1 µM (CDK9/Cyclin T1) [%] | IC50 (HUH-7) [nM] | IC50 (HCC-1.2 (3p)) [nM] | IC50 (PLC/PRF/5) [nM] | IC50 (HCC-1.1 (3sp)) [nM] | IC50 (Hep3B) [nM] | Wound area ([1]; 100 nM) | Wound area ([1]; 1000 nM) | IC50 ([2]; 24 h) [nM] | IC50 ([2]; 72 h) [nM] | IC50 (CDK9/Cyclin T1; Table 12, read-out: IC50, CDK9/cyklin T) [nM]
NC1CCC(Nc2nc(NCc3ccc(-c4ccco4)nc3)c3ncn(C4CCCC4)c3n2)CC1 (centres unmarked) [BP14, N^2-(4-amino-cyclohexyl)-9-cyclopentyl-N^6-(6-furan-2-yl-pyridin-3-ylmethyl)-9H-purine-2,6-diamine] | 54.8 | 23.9 | 37.8 | 24.8 | 22.3 | 0.73 | 373 | 410 | 7 | 513 | 58 | + | ++ | > 50000 | 50 | 7
